In test [1] the target is T1, human α7-AChR (Homo sapiens, UniProt P36544). As to conditions: pH 7.4; cited from earlier work.
For test [2], the target named is T1, human α7-AChR. Format: binding. As to conditions: read-out: Unlabeled-ligand half-competition concentration; pH 7.4.

T1 sequence (P36544 23-502): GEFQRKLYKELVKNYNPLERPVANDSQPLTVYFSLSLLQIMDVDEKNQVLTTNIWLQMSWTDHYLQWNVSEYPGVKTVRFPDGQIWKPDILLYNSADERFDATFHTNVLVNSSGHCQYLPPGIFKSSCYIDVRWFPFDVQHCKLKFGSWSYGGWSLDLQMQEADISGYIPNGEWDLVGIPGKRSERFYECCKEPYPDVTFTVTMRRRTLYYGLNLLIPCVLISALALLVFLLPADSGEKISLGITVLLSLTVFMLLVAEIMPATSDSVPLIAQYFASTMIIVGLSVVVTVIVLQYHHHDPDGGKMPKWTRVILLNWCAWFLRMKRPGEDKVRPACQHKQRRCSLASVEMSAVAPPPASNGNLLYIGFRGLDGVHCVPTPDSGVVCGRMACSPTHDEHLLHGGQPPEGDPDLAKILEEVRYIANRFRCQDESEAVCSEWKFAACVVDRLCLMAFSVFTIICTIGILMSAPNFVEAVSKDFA

Turning to `C[N+](C)(C)CCO` [Choline, choline], the “Unlabeled-ligand nH (Hill coefficient)” value on human α7-AChR [1] is on record as 1.28 ± 0.08.

Turning to `CC[N+](C)(C)C` [ETMA], at human α7-AChR [2], the IC50 turned out to be 15.6 ± 1.09 µM.

Take `CN1CCC[C@H]1c1cccnc1` [Nicotine, nicotine]: the “Unlabeled-ligand nH (Hill coefficient)” value on human α7-AChR [1] is 1.41 ± 0.06.

On to `C[N+](C)(C)C` [TMA, tetramethylammonium], for which, on human α7-AChR [2], the IC50 stood at 11.4 ± 1.33 µM.

The values are drawn from publication PMC9636949 (Proceedings of the National Academy of Sciences of the …, 2022).
